Reference: patent publication US20140161720A1, “TREATMENT OF ANGIOGENIC- OR VASCULAR-ASSOCIATED DISEASES” (THE GENERAL HOSPITAL CORPORATION, priority 2011, published 2014)
“Also recorded” adds a separate entry of the source.

What was measured:
[1] = Pharmacokinetics after intraperitoneal administration; format: in vivo; settings: after i.p. dosing, 100% DMSO formulation, male CD-1 mice
From the text: FIG. 8 is a graph showing pharmacokinetic parameters after intraperitoneal administration of DAL.

[2] = test system: Tg(fli1:EGFP)^y1 zebrafish embryos; experiment: Vascular development in zebrafish embryos; format: in vivo
Protocol: Zebrafish were raised in accordance with the established protocols (19-20). The age of embryos is indicated by the hours after fertilization and days after fertilization for all experimental data shown herein. For the screening study, zebrafish embryos were incubated with the selected compounds at a concentration of 5-10 μM. Treated embryos were then examined under a 100× PlanNeofluor objective mounted on a Nikon TE-200 epifluorescence microscope. Images of embryos bearing GFP-positive cells were captured with a Zeiss stereomicroscope.
To elucidate the potential impact of DAL on the process of vascular network formation, its effects in zebrafish embryos at different stages of development were assessed. To visualize vessel defects, transgenic fish expressing EGFP in endothelial cells (Tg(fli1:EGFP)^y1) were used (19-20). This model expresses EGFP in blood vessel ECs throughout normal development and during fin regeneration (21). The effects of DAL on normal vascular development in zebrafish embryos were first characterized. In control embryos, developing vessels migrated from the lateral plate mesoderm to the midline, where they coalesced into a vascular cord. These endothelial clusters subsequently established the pattern of the dorsal aorta and posterior cardinal vein. Intersomitic vessels sprouted at designated branch sites in control embryos after dorsal aorta formation.

[3] = test system: HUVEC; experiment: F-actin visualization and cell shape in HUVECs (phalloidin); format: cell-based, human; settings: 10 μM, three hours
Protocol: (§1) For F-actin visualization, HUVECs were plated and treated with saline or DAL (10 μM) for three hours. After fixing and permeabilizing these cultured cells, the cells were subsequently stained with phalloidin. […] Existing cordlike structures, when exposed to 10 μM of DAL for 3 hours, were also disrupted. […] HUVEC monolayers were disrupted mechanically with a pipette tip and the migration of cells to “heal” the wound was monitored using microscopy.
To gain further insight into the anti-vascular effects of DAL and to assess the involvement of DAL in modulating actin assembly, normal human umbilical vein endothelial cells(HUVEC) were plated and treated with 10 μM DAL for three hours. The cells were fixed, permeabilized, and subsequently stained with phalloidin to visualize F-actin (FIG. 5A).

[4] = test system: HUVEC; experiment: In vitro vascular network formation on matrigel; format: cell-based, human
Protocol: as §1
To assess whether DAL affects EC functions, in vitro models of vascular network formation from HUVECs were used. After overnight cultivation in matrigel, HUVECs spontaneously assemble into cord-like structures that resemble vascular networks. […] Since DAL affects actin cytoskeleton assembly, the effect of DAL on cell motility was next assessed. A scratch wound assay was utilized to study HUVEC motility based on the healing rate of a wounded monolayer.

[5] = test system: Rac1; experiment: Rac1 ubiquitination, Duolink in situ proximity assay in HUVECs; format: cell-based, human; settings: HUVEC, lactacystin or MG-132 pretreatment, DAL 10 μM 24 hours
Protocol: HUVEC cells were treated with 10 μM of DAL for 24 hours and then lysed. A western blot with anti-human Rac1 antibody is shown on top panel while the bottom panel represents a loading control. […] To enhance ubiquitination events, HUVEC cells were pretreated with the proteasome inhibitors lactacystin (2.5 mM) or MG-132 (0.2 mM) for one hour and subsequently treated with DAL (10 μM) of DAL for 24 hours. Duolink in situ was used for the detection of ubiquitinated Rac1 in DAL treated and untreated HUVEC cells. For the two Duolink PLA probes, primary mouse antibodies raised against human Rac1 and primary rabbit anti-ubiquitin were used. Fluorescent spots represent ubiquitinated Rac1. The nuclei with additionally stained DAPI.
However, protein levels of Rac1 were reduced after DAL treatment (FIG. 6B). Next, it was assessed whether DAL can enhance Rac1 ubiquitination and therefore promote or speed up degradation (31-34). For the detection of Rac1 ubiquitination in HUVECs, Rac1-ubiquitin binding in situ was identified using a Duolink molecular proximity assay. In this assay, molecules thought to interact are targeted with fluorescent antibodies in situ, and individual interactions generate a signal detectable by microscopy only if secondary antibodies are located in close proximity to each other. […]

[6] = Toxicity of intraperitoneal DAL in SCID mice; format: in vivo; settings: intraperitoneal doses of up to 100 mg/kg
Protocol: A cell-based readout system was used for compound selection. For the cell-based screening, an optimal cell density of 10,000 breast cancer MDA-MB-231 cells/well was selected to produce the most prominent signal. The plated cells were incubated with each library compound, washed with PBS, and the Cell Titer-Glo (Promega) reagent was used to detect the number of cells remaining attached in each well. This ATP-based detection has a linear relationship between the luminescent signal and the number of cells per well. Of the 50,000 compounds screened, 86 library compounds (0.172% of screened compounds) were selected at 1.67 μM concentration for the second screening step. […] As a further test of toxicity, DAL was injected intraperitoneally at 100 mg/kg in SCID mice and signs of toxicity including cachexia, ruffled fur, diarrhea, anorexia, skin ulceration, and toxic death were monitored.
A screening strategy was developed to identify potential agents that target adhesion of endothelial cells or cancer cells to their substrate. […] The initial screening step quantified the number of cells remaining attached to their wells following incubation with each compound and subsequent washing steps. […] The agents that affect cell adhesion can be monitored through remodeling of actin filaments. […] Changes in actin assembly and cell shape after treatment with 12 compounds were determined. […]

SMILES: CC1(C)C=CC2=C(O1)C(=O)c1ccccc1C2=O [DAL, dehydro-alpha-lapachone]
- half-life in plasma [1]: 1.7 h
- complexity of the arterial network ([2]; zebrafish embryos): profound reduction
- vessel branch formation / sprouting of intersomitic vessels ([2]; zebrafish embryos 48 hours after fertilization, DAL 5 μM): failed to occur; also recorded: failed to form vessel branches
- cell size and shape [3]: smaller than untreated control cells and had a rounded shape
- F-actin organization ([3]; phalloidin): actin present only as small fibers and spots throughout the cells or accumulated close to the nuclei
- effect on existing cordlike networks ([4]; 10 μM for 3 hours): complete reorganization of existing networks; also recorded: disrupted
- HUVEC network formation on matrigel ([4]; after 24 hours / overnight cultivation): blocks HUVEC network formation; also recorded: disjoined networks
- Rac1 ubiquitination [5]: more ubiquitinated Rac1 protein; also recorded: increases
- signs of toxicity (cachexia, ruffled fur, diarrhea, anorexia, skin ulceration, toxic death) [6]: low toxicity; also recorded: no signs of toxicity
